Reference: PubChem BioAssay AID2060507 (Molecular Pharmacology Branch, DTP, NCI, 2025)
Each block holds one molecule with its values, some of them ahead of it.

Tested on: 519858-162-T-J1-PDC complex spheroid viability
Assay: Anticancer human tumor 519858-162-T-J1-PDC patient-derived colon adenocarcinoma cell line growth inhibition [GQUAD]
Conditions: for IC50: curve of first compound; for viability, T/C: stronger effect = lower value
How it was run: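 Tumor cells were grown as complex spheroids with HUVEC endothelial cells and mesenchymal stem cells as stroma. G-quadruplex stabilizers were combined with targeted agents over half-log dilutions from near the clinical Cmax, or from 10 microM.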

[1] = second compound 0.0316 µM, first compound 0.0316 µM
[2] = second compound 0.0316 µM, first compound 0.316 µM
[3] = second compound 0.1 µM, first compound 0.0316 µM
[4] = second compound 0.1 µM, first compound 0.316 µM
[5] = second compound 0.316 µM, first compound 0.0316 µM
[6] = second compound 0.316 µM, first compound 0.316 µM
[7] = second compound 1 µM, first compound 0.0316 µM
[8] = second compound 1 µM, first compound 0.316 µM
[9] = second compound 3.16 µM, first compound 0.0316 µM
[10] = second compound 3.16 µM, first compound 0.316 µM
[11] = second compound 10 µM, first compound 0.0316 µM
[12] = second compound 10 µM, first compound 0.316 µM
[13] = second compound 0.0316 µM, first compound 0.1 µM
[14] = second compound 0.0316 µM, first compound 1 µM
[15] = second compound 0.0316 µM, first compound 3.16 µM
[16] = second compound 0.0316 µM, first compound 10 µM
[17] = second compound 0.1 µM, first compound 0.1 µM
[18] = second compound 0.1 µM, first compound 1 µM
[19] = second compound 0.1 µM, first compound 3.16 µM
[20] = second compound 0.1 µM, first compound 10 µM
[21] = second compound 0.316 µM, first compound 0.1 µM
[22] = second compound 0.316 µM, first compound 1 µM
[23] = second compound 0.316 µM, first compound 3.16 µM
[24] = second compound 0.316 µM, first compound 10 µM
[25] = second compound 1 µM, first compound 0.1 µM
[26] = second compound 1 µM, first compound 1 µM
[27] = second compound 1 µM, first compound 3.16 µM
[28] = second compound 1 µM, first compound 10 µM
[29] = second compound 3.16 µM, first compound 0.1 µM
[30] = second compound 3.16 µM, first compound 1 µM
[31] = second compound 3.16 µM, first compound 3.16 µM
[32] = second compound 3.16 µM, first compound 10 µM
[33] = second compound 10 µM, first compound 0.1 µM
[34] = second compound 10 µM, first compound 1 µM
[35] = second compound 10 µM, first compound 3.16 µM
[36] = second compound 10 µM, first compound 10 µM
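Note: spheroids exposed to compounds for 7 days.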
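Throughout, for viability, T/C: 100% = DMSO vehicle control viability.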

Structure (SMILES): Cn1ncnc1[C@H]1c2n[nH]c(=O)c3cc(F)cc(c23)N[C@@H]1c1ccc(F)cc1 + CN(C)c1ccc(Nc2c3ccc(NC(=O)CCN4CCCC4)cc3nc3cc(NC(=O)CCN4CCCC4)ccc23)cc1
IC50 (second compound 0.0316 µM): > 0.316 µM
IC50 (second compound 0.1 µM): > 0.316 µM
IC50 (second compound 0.316 µM): > 0.316 µM
IC50 (second compound 1 µM): > 0.316 µM
IC50 (second compound 3.16 µM): > 0.316 µM
IC50 (second compound 10 µM): > 0.316 µM
viability, T/C (second compound 0.0316 µM, first compound 0.000999 µM): 74.5%
viability, T/C (second compound 0.0316 µM, first compound 0.00316 µM): 119%
viability, T/C (second compound 0.0316 µM, first compound 0.00999 µM): 146%
viability, T/C [1]: 66.9%
viability, T/C (second compound 0.0316 µM, first compound 0.0999 µM): 79.6%
viability, T/C [2]: 118%
viability, T/C (second compound 0.1 µM, first compound 0.000999 µM): 96%
viability, T/C (second compound 0.1 µM, first compound 0.00316 µM): 109%
viability, T/C (second compound 0.1 µM, first compound 0.00999 µM): 79%
viability, T/C [3]: 103%
viability, T/C (second compound 0.1 µM, first compound 0.0999 µM): 104%
viability, T/C [4]: 105%
viability, T/C (second compound 0.316 µM, first compound 0.000999 µM): 94.4%
viability, T/C (second compound 0.316 µM, first compound 0.00316 µM): 139%
viability, T/C (second compound 0.316 µM, first compound 0.00999 µM): 99.1%
viability, T/C [5]: 84.6%
viability, T/C (second compound 0.316 µM, first compound 0.0999 µM): 83%
viability, T/C [6]: 109%
viability, T/C (second compound 1 µM, first compound 0.000999 µM): 75.3%
viability, T/C (second compound 1 µM, first compound 0.00316 µM): 68.4%
viability, T/C (second compound 1 µM, first compound 0.00999 µM): 82.2%
viability, T/C [7]: 63.5%
viability, T/C (second compound 1 µM, first compound 0.0999 µM): 88.9%
viability, T/C [8]: 119%
viability, T/C (second compound 3.16 µM, first compound 0.000999 µM): 104%
viability, T/C (second compound 3.16 µM, first compound 0.00316 µM): 97.8%
viability, T/C (second compound 3.16 µM, first compound 0.00999 µM): 78.6%
viability, T/C [9]: 63.2%
viability, T/C (second compound 3.16 µM, first compound 0.0999 µM): 54.8%
viability, T/C [10]: 91.9%
viability, T/C (second compound 10 µM, first compound 0.000999 µM): 89.9%
viability, T/C (second compound 10 µM, first compound 0.00316 µM): 57.5%
viability, T/C (second compound 10 µM, first compound 0.00999 µM): 82.4%
viability, T/C [11]: 79.6%
viability, T/C (second compound 10 µM, first compound 0.0999 µM): 67.5%
viability, T/C [12]: 65.7%

Structure (SMILES): C#Cc1c(F)ccc2cc(O)cc(-c3ncc4c(N5CC6CCC(C5)N6)nc(OCC56CCCN5CC(F)C6)nc4c3F)c12 (stereo unspecified) + Cc1[nH]c2ccc(F)cc2c1-c1nc2c3cccnc3c3ncccc3c2[nH]1
IC50 (second compound 0.0316 µM): > 10 µM
IC50 (second compound 0.1 µM): > 10 µM
IC50 (second compound 0.316 µM): > 10 µM
IC50 (second compound 1 µM): > 10 µM
IC50 (second compound 3.16 µM): > 10 µM
IC50 (second compound 10 µM): > 10 µM
viability, T/C [1]: 103%
viability, T/C [13]: 82.9%
viability, T/C [2]: 92%
viability, T/C [14]: 113%
viability, T/C [15]: 72.3%
viability, T/C [16]: 73.2%
viability, T/C [3]: 111%
viability, T/C [17]: 85.9%
viability, T/C [4]: 126%
viability, T/C [18]: 83.9%
viability, T/C [19]: 68.3%
viability, T/C [20]: 73%
viability, T/C [5]: 104%
viability, T/C [21]: 112%
viability, T/C [6]: 87.5%
viability, T/C [22]: 75.7%
viability, T/C [23]: 106%
viability, T/C [24]: 66.1%
viability, T/C [7]: 79.4%
viability, T/C [25]: 73.9%
viability, T/C [8]: 104%
viability, T/C [26]: 60.4%
viability, T/C [27]: 106%
viability, T/C [28]: 58.5%
viability, T/C [9]: 86.5%
viability, T/C [29]: 80%
viability, T/C [10]: 79.7%
viability, T/C [30]: 52.6%
viability, T/C [31]: 76.7%
viability, T/C [32]: 80.3%
viability, T/C [11]: 78.3%
viability, T/C [33]: 83.2%
viability, T/C [12]: 76.3%
viability, T/C [34]: 63.5%
viability, T/C [35]: 52.3%
viability, T/C [36]: 65.6%

IC50 (second compound 0.0316 µM): > 10 µM
IC50 (second compound 0.1 µM): > 10 µM
IC50 (second compound 0.316 µM): 8.09 µM
IC50 (second compound 1 µM): > 10 µM
IC50 (second compound 3.16 µM): 5.35 µM
IC50 (second compound 10 µM): < 0.0316 µM
Structure (SMILES): COc1cc(C2c3cc4c(cc3C(OC3OC5COC(C)OC5C(O)C3O)C3COC(=O)C23)OCO4)cc(OC)c1O (stereo unspecified) + Cc1cnc(CNC(=O)c2c(=O)c3ccc(N4CCCN(C)CC4)nc3n3c2sc2ccccc23)cn1
viability, T/C [1]: 90%
viability, T/C [13]: 94.6%
viability, T/C [2]: 94.9%
viability, T/C [14]: 105%
viability, T/C [15]: 59.7%
viability, T/C [16]: 83.3%
viability, T/C [3]: 93.7%
viability, T/C [17]: 115%
viability, T/C [4]: 86.5%
viability, T/C [18]: 79.9%
viability, T/C [19]: 80.4%
viability, T/C [20]: 64.4%
viability, T/C [5]: 59%
viability, T/C [21]: 69.9%
viability, T/C [6]: 103%
viability, T/C [22]: 63.8%
viability, T/C [23]: 71.9%
viability, T/C [24]: 45.1%
viability, T/C [7]: 80.4%
viability, T/C [25]: 51.6%
viability, T/C [8]: 62%
viability, T/C [26]: 58.7%
viability, T/C [27]: 55.2%
viability, T/C [28]: 61.8%
viability, T/C [9]: 57%
viability, T/C [29]: 60.3%
viability, T/C [10]: 66.5%
viability, T/C [30]: 55.7%
viability, T/C [31]: 49.5%
viability, T/C [32]: 47.7%
viability, T/C [11]: 52.8%
viability, T/C [33]: 40.8%
viability, T/C [12]: 56.4%
viability, T/C [34]: 41%
viability, T/C [35]: 42.5%
viability, T/C [36]: 74.1%
